Measurements as given in patent US9029359B2, “Heteroaryl Btk inhibitors” (Biogen Idec MA, Inc., priority 2009, dated 2015).

Molecular target: T1, BTK (Homo sapiens, UniProt Q06187)
T1 construct: purchased Upstate 14-552
Assay: In vitro BTK kinase assay: BTK-POLYGAT-LS ASSAY
Type: biochemical
Details: ATP 10 uM
Protocol: In vitro BTK kinase assay: BTK-POLYGAT-LS ASSAY. The purpose of the BTK in vitro assay is to determine compound potency against BTK through the measurement of IC50. […] A 24 μL aliquot of a ATP/peptide master mix (final concentration; ATP 10 μM, polyGAT 100 nM) in kinase buffer (10 mM Tris-HCl pH 7.5, 10 mM MgCl2, 200 μM Na3VO4, 5 mM DTT, 0.01% Triton X-100, and 0.2 mg/ml Casein) is added to each well. […] The assay is incubated for 30 minutes before being stopped with 28 μL of a 50 mM EDTA solution. […] The plate is covered and incubated for 45 minutes at room temperature. Time resolved fluorescence (TRF) on Molecular Devices M5 (332 nm excitation; 488 nm emission; 518 nm fluorescein emission) is measured.

T1 sequence (Q06187 whole entry): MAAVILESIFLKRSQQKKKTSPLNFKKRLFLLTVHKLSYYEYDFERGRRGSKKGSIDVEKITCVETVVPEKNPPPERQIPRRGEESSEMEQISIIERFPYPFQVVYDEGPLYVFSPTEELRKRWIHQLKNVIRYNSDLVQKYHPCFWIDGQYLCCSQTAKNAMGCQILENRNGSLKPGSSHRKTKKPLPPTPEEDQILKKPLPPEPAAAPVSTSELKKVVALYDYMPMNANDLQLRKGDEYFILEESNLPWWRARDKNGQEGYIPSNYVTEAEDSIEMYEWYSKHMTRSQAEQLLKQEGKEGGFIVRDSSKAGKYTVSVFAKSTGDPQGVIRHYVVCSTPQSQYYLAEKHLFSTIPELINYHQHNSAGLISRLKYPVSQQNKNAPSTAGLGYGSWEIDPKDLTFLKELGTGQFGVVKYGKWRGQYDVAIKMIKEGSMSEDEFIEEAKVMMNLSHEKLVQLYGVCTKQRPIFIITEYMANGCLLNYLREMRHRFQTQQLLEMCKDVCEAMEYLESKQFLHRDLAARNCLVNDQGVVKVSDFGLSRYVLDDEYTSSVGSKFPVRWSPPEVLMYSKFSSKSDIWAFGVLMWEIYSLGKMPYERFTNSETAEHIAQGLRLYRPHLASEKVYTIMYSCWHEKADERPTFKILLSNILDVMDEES

SMILES | IC50 [nM]
O=C(Nc1ccccc1)C(=O)NC1CCCN(c2ncnc3[nH]ccc23)C1 (stereo not drawn) [Example 4] | > 10000
O=C(CNc1ccccc1)NC1CCCN(c2ncnc3[nH]cc(Cl)c23)C1 (stereo not drawn) [Example 462] | > 10000
O=C(CNc1ccccc1)N(CC1CCCCC1)C1CCCN(c2ncnc3[nH]ccc23)C1 (stereo not drawn) [Example 88, (N-(1-(7H-pyrrolo[2,3-d]pyrimidin-4-yl)piperidin-3-yl)-N-(cyclohexylmethyl)-2-(phenylamino)acetamide)] | 1000 to 10000
NC(=O)c1cccc(NCC(=O)N[C@@H]2CCCN(c3ncnc4[nH]ccc34)C2)c1 [Example 434] | 1000 to 10000
COc1cccc(NCC(=O)NC2CCCN(c3nccc4[nH]ccc34)C2)c1OC (stereo not drawn) [Example 340] | > 10000
CN(C)Cc1cccc(NCC(=O)NC2CCCN(c3ncnc4[nH]ccc34)C2)c1 (stereo not drawn) [Example 345] | > 10000
Cc1ccc(NCC(=O)N[C@@H]2CCCN(c3ncnc4[nH]ccc34)C2)c(F)c1 [Example 420] | 1000 to 10000
O=C(CNc1cccc2c1OCCO2)NC1CCCN(c2ncnc3[nH]ccc23)C1 (stereo not drawn) [Example 336] | > 10000
O=C(CNc1cccc2ncccc12)NC1CCCN(c2ncnc3[nH]ccc23)C1 (stereo not drawn) [Example 332] | > 10000
O=C(NC1CCCN(c2ncnc3[nH]ccc23)C1)c1cc2ccccc2[nH]1 (stereo not drawn) [Example 362] | 1000 to 10000
O=C(CNC(=O)c1ccc(Cl)cc1)NC1CCCN(c2ncnc3[nH]ccc23)C1 (stereo not drawn) [Example 94, (N-(2-(1-(7H-pyrrolo[2,3-d]pyrimidin-4-yl)piperidin-3-ylamino)-2-oxoethyl)-4-chlorobenzamide)] | 1000 to 10000
Cc1nccc(-c2cccc(NCC(=O)N[C@@H]3CCCN(c4ncnc5[nH]ccc45)C3)c2)n1 [Example 436] | 1000 to 10000
O=C(CNc1cc(C(F)(F)F)ccc1F)NC1CCCN(c2ncnc3[nH]ccc23)C1 (stereo not drawn) [Example 69, (N-(1-(7H-pyrrolo[2,3-d]pyrimidin-4-yl)piperidin-3-yl)-2-(2-fluoro-5-(trifluoromethyl)phenylamino)acetamide)] | 1000 to 10000
CC(C)(C)c1ccc(NCC(=O)NC2CCCN(c3ncnc4[nH]ccc34)C2)cc1 (stereo not drawn) [Example 19, (N-(1-(7H-pyrrolo[2,3-d]pyrimidin-4-yl)piperidin-3-yl)-2-(4-tert-butylphenylamino)acetamide)] | > 10000
Cc1ccc(NCC(=O)N[C@@H]2CCCN(c3ncnc4[nH]ccc34)C2)c(Cl)c1 [Example 430] | 1000 to 10000
O=C(CNc1cccc2cn[nH]c12)NC1CCCN(c2ncnc3[nH]ccc23)C1 (stereo not drawn) [Example 75] | 1000 to 10000
O=C(CNc1cccc(N2CCOCC2)c1)NC1CCCN(c2ncnc3[nH]ccc23)C1 (stereo not drawn) [Example 83, (N-(1-(7H-pyrrolo[2,3-d]pyrimidin-4-yl)piperidin-3-yl)-2-(3-morpholinophenylamino)acetamide)] | 1000 to 10000
O=C(CNc1cccc(-c2nnco2)c1)NC1CCCN(c2ncnc3[nH]ccc23)C1 (stereo not drawn) [Example 349] | > 10000
Cn1ccc(NCC(=O)NC2CCCN(c3ncnc4[nH]ccc34)C2)n1 (stereo not drawn) [Example 80, (N-(1-(7H-pyrrolo[2,3-d]pyrimidin-4-yl)piperidin-3-yl)-2-(1-methyl-1H-pyrazol-3-ylamino)acetamide)] | 1000 to 10000
O=C(CNc1ccc2c(c1)OCO2)NC1CCCN(c2nccc3[nH]ccc23)C1 (stereo not drawn) [Example 335] | > 10000
O=C(CNC1CCCCC1)NC1CCCN(c2ncnc3[nH]ccc23)C1 (stereo not drawn) [Example 354] | > 10000
O=C(CNc1cccc(SC(F)(F)F)c1)NC1CCCN(c2ncnc3[nH]ccc23)C1 (stereo not drawn) [Example 82, (N-(1-(7H-pyrrolo[2,3-d]pyrimidin-4-yl)piperidin-3-yl)-2-(3-(trifluoromethylthio)phenylamino)acetamide)] | 100 to 999
O=C(CNc1cccc(F)c1F)N[C@@H]1CCCN(c2ncnc3[nH]ccc23)C1 [Example 422] | 100 to 999
O=C(N[C@@H]1CCCN(c2ncnc3[nH]ccc23)C1)[C@@H](CO)Nc1cc(F)cc(Cl)c1 [Example 424] | 1000 to 10000
CC(C)c1ccccc1N[C@@H](C(=O)N[C@@H]1CCCN(c2ncnc3[nH]ccc23)C1)C(C)(C)C [Example 300] | 100 to 999
O=C(COc1ccccc1)NC1CCCN(c2ncnc3[nH]ccc23)C1 (stereo not drawn) [Example 8, (N-(1-(7H-pyrrolo[2,3-d]pyrimidin-4-yl)piperidin-3-yl)-2-phenoxyacetamide)] | 1000 to 10000
O=C(CNc1cccc2nccn12)NC1CCCN(c2ncnc3[nH]ccc23)C1 (stereo not drawn) [Example 328] | > 10000

Now from value to molecule:

IC50 [nM] | SMILES
< 100 | CC1CCCCN1S(=O)(=O)c1ccccc1NCC(=O)N[C@@H]1CCCN(c2ncnc3[nH]ncc23)C1 (stereo partly drawn) [Example 214]
100 to 999 | CC(C)c1ccccc1N[C@@H](C(=O)N[C@@H]1CCCN(c2ncnc3[nH]ccc23)C1)[C@H](C)O [Example 239]
100 to 999 | Cc1cccc(NCC(=O)NC2CCCN(c3ncnc4[nH]ccc34)C2)c1C (stereo not drawn) [Example 84, (N-(1-(7H-pyrrolo[2,3-d]pyrimidin-4-yl)piperidin-3-yl)-2-(2,3-dimethylphenylamino)acetamide)]
100 to 999 | O=C(CNC(=O)Nc1ccccc1)NC1CCCN(c2ncnc3[nH]ccc23)C1 (stereo not drawn) [Example 2, (N-(1-(7H-pyrrolo[2,3-d]pyrimidin-4-yl)piperidin-3-yl)-2-(3-phenylureido)acetamide)]
< 100 | O=C(NC1CN(c2ncnc3[nH]ncc23)CCC1c1ccccc1)[C@H](Nc1cc(F)cc(Cl)c1)C1CC1 (stereo partly drawn) [Example 149, (R)-2-(3-chloro-5-fluorophenylamino)-2-cyclopropyl-N-(4-phenyl-1-(1H-pyrazolo[3,4-d]pyrimidin-4-yl)piperidin-3-yl)acetamide]
< 100 | CC[C@@H](Nc1ccccc1)C(=O)N[C@@H]1CCCN(c2ncnc3[nH]ccc23)C1 [Example 114, (R)—N—((R)-1-(7H-pyrrolo[2,3-d]pyrimidin-4-yl)piperidin-3-yl)-2-(phenylamino)butanamide]
< 100 | O=C(CNc1ccccc1S(=O)(=O)N1CCCC1)N[C@@H]1CCCN(c2ncnc3[nH]ncc23)C1 [Example 205]
100 to 999 | C[C@@H](O)[C@@H](Nc1ccccc1)C(=O)N[C@@H]1CCCN(c2ncnc3[nH]ccc23)C1 [Example 110, (2R,3R)—N—((R)-1-(7H-pyrrolo[2,3-d]pyrimidin-4-yl)piperidin-3-yl)-3-hydroxy-2-(phenylamino)butanamide]
100 to 999 | CC(C)(C)c1cccc(NCC(=O)NC2CCCN(c3ncnc4[nH]ccc34)C2)c1 (stereo not drawn) [Example 18, (N-(1-(7H-pyrrolo[2,3-d]pyrimidin-4-yl)piperidin-3-yl)-2-(3-ten-butylphenylamino)acetamide)]
100 to 999 | CCC[C@@H](Nc1cccc2c1OC(F)(F)O2)C(=O)N[C@@H]1CCCN(c2ncnc3[nH]ncc23)C1 [Example 371]
< 100 | O=C(CNc1cccc2ccccc12)NC1CCCN(c2ncnc3[nH]ccc23)C1 (stereo not drawn) [Example 46, (N-(1-(7H-pyrrolo[2,3-d]pyrimidin-4-yl)piperidin-3-yl)-2-(naphthalen-1-ylamino)acetamide)]
100 to 999 | CC[C@@H](Nc1ccccc1C(C)C)C(=O)N[C@@H]1CCCN(c2ncnc3[nH]ncc23)C1 [Example 294]
100 to 999 | C[C@H]1CC[C@@H](NC(=O)[C@H](Nc2cc(F)cc(Cl)c2)C2CC2)CN1c1ncnc2[nH]ncc12 [Example 148, (R)-2-(3-chloro-5-fluorophenylamino)-2-cyclopropyl-N-((3R,6S)-6-methyl-1-(1H-pyrazolo[3,4-d]pyrimidin-4-yl)piperidin-3-yl)acetamide]
< 100 | O=C(CNc1cc(F)cc(F)c1)NC1CCCN(c2ncnc3[nH]ccc23)C1 (stereo not drawn) [Example 68, (N-(1-(7H-pyrrolo[2,3-d]pyrimidin-4-yl)piperidin-3-yl)-2-(3,5-difluorophenylamino)acetamide)]
100 to 999 | Cc1cccc(NCC(=O)N[C@@H]2CCCN(c3ncnc4[nH]ccc34)C2)c1C [Example 292]
100 to 999 | Cc1ccc(NCC(=O)N[C@@H]2CCCN(c3ncnc4[nH]ccc34)C2)cc1C [Example 258]
100 to 999 | Nc1ncnc(N2CCC[C@@H](NC(=O)CNc3cc(Cl)cc(Cl)c3)C2)c1Cl [Example 140, (R)—N-(1-(6-amino-5-chloropyrimidin-4-yl)piperidin-3-yl)-2-(3,5-dichlorophenylamino)acetamide]
100 to 999 | O=C(CNc1cccc(-c2cccs2)c1)N[C@@H]1CCCN(c2ncnc3[nH]ccc23)C1 [Example 305]
100 to 999 | CC[C@@H](C)[C@@H](Nc1ccccc1)C(=O)N[C@@H]1CCCN(c2ncnc3[nH]ccc23)C1 [Example 117, (2R,3R)—N—((R)-1-(7H-pyrrolo[2,3-d]pyrimidin-4-yl)piperidin-3-yl)-3-methyl-2-(phenylamino)pentanamide]
100 to 999 | O=C(CNc1ccccc1)N(CCc1ccccc1)C1CCCN(c2ncnc3[nH]ccc23)C1 (stereo not drawn) [Example 87, (N-(1-(7H-pyrrolo[2,3-d]pyrimidin-4-yl)piperidin-3-yl)-N-phenethyl-2-(phenylamino)acetamide)]
< 100 | CCC[C@@H](Nc1cccc(Cl)c1)C(=O)N[C@@H]1CCCN(c2ncnc3[nH]ccc23)C1 [Example 215]
100 to 999 | CC(C)(C)[C@@H](Nc1ccccc1)C(=O)N[C@@H]1CCCN(c2ncnc3[nH]ccc23)C1 [Example 108, (R)—N—((R)-1-(7H-pyrrolo[2,3-d]pyrimidin-4-yl)piperidin-3-yl)-3,3-dimethyl-2-(phenylamino)butanamide]
< 100 | CCCc1ccccc1NCC(=O)N[C@@H]1CCCN(c2ncnc3[nH]ccc23)C1 [Example 259]
< 100 | CC1CCC(C)N1S(=O)(=O)c1ccccc1NCC(=O)N[C@@H]1CCCN(c2ncnc3[nH]ncc23)C1 (stereo partly drawn) [Example 220]
